Five compounds from article PMC6019134, “1,2,6-Thiadiazinones as Novel Narrow Spectrum Calcium/Calmodulin-Dependent Protein Kinase Kinase 2 (CaMKK2) Inhibitors” (Molecules : A Journal of Synthetic Chemistry and Natural …, 2018) can be followed below.

Common to all, as to experiment: DSF thermal shift, kinase panel
What all share (format): binding
What all share (details): 10 μM compound

One test addresses T1, GAKA (Homo sapiens, UniProt O14976).
T1 construct: purchased in-house (home-made panel, SGC-style construct names)
T1 sequence (O14976 1-1311): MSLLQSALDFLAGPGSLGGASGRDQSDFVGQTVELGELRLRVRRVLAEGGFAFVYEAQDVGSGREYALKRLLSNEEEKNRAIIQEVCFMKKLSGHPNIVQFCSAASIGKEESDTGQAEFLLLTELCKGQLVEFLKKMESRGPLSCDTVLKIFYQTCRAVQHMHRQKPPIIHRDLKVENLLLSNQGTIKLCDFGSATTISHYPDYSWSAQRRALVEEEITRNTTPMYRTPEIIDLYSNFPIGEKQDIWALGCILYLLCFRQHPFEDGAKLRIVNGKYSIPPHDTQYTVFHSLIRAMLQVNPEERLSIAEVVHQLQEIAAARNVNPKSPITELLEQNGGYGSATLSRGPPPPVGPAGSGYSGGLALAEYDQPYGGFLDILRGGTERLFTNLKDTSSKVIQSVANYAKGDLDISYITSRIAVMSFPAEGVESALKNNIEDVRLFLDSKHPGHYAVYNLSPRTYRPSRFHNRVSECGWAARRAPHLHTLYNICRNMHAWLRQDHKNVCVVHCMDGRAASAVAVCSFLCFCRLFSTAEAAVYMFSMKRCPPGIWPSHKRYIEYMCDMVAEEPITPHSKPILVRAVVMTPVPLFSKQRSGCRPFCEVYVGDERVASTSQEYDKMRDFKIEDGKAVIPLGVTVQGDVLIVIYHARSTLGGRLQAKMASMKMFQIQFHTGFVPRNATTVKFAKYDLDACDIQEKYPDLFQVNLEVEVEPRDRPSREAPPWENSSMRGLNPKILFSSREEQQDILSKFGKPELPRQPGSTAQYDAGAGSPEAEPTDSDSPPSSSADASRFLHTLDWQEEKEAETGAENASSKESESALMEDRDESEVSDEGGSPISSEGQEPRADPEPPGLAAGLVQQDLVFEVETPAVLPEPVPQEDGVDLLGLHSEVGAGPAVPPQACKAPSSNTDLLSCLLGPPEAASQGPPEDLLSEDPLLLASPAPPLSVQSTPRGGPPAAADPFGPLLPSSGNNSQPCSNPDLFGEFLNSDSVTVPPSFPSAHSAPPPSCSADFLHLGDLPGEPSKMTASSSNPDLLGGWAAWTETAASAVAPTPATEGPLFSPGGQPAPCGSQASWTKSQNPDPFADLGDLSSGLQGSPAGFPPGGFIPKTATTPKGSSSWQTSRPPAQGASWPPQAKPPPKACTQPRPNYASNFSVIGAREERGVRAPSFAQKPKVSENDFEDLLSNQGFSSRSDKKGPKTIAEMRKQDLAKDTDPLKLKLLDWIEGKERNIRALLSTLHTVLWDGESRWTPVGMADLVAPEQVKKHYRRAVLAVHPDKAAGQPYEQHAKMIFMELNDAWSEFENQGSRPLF
The method in brief: (§1)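 Compounds were screened at 10 µM by differential scanning fluorimetry against 1 µM purified kinase in buffered glycerol/NaCl with fluorescent dye. Melting curves, recorded during a 0.05 °C/s ramp to 95 °C, were fitted to a Boltzmann function to give dTm.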

Another test addresses T2, PRPF4BA (Homo sapiens, UniProt Q13523).
T2 construct: purchased in-house (home-made panel, SGC-style construct names)
In outline:
as §1

Another test addresses T3, TRIB2A (Homo sapiens, UniProt Q92519).
T3 construct: TEV-cleavable (cleaved yes); made in house; host or cells: E. coli
T3 sequence (Q92519 1-343): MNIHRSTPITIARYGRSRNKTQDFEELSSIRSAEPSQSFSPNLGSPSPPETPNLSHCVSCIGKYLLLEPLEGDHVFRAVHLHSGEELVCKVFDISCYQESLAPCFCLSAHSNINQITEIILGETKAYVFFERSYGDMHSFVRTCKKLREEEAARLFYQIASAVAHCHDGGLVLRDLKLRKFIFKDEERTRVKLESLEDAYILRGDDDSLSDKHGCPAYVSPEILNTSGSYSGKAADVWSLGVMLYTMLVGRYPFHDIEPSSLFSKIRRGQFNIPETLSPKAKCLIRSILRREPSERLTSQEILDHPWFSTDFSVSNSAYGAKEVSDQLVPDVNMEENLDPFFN
The method in brief:
as §1

SMILES strings stand for the structures.

T2 sequence (Q13523 whole entry): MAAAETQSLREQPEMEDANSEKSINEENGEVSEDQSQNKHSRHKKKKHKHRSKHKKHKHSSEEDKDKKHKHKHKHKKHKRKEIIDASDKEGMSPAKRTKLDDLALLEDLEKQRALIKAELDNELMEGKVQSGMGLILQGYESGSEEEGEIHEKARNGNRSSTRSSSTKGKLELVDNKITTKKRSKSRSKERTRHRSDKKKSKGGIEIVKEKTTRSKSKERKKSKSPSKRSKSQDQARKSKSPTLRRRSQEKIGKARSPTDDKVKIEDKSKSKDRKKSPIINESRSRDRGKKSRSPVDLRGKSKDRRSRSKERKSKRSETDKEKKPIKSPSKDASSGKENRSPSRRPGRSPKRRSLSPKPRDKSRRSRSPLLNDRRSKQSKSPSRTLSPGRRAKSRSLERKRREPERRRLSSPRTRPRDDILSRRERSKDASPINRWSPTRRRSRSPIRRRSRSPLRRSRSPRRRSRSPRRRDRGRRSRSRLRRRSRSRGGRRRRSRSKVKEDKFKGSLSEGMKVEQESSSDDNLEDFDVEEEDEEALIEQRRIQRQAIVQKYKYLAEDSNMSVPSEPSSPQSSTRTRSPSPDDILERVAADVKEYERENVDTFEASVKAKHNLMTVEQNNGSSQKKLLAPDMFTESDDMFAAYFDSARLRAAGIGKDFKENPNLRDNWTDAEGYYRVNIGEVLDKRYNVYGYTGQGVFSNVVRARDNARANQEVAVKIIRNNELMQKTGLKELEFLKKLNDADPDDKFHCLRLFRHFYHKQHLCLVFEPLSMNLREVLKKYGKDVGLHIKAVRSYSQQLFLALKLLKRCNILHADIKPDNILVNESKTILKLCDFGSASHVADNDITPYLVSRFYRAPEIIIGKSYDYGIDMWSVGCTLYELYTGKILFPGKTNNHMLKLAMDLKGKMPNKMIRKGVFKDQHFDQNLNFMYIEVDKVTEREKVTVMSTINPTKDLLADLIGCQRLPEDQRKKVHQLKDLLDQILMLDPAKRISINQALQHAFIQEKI

What is called ΔTm is the change in melting temperature against a reference sample. As to `Cc1ccc(Nc2nsnc(Nc3cccc(C(N)=O)c3)c2=O)cc1O` [Compound 1, 3-({5-[(3-Hydroxy-4-methylphenyl)amino]-4-oxo-4H-1,2,6-thiadiazin-3-yl}amino)benzamide], the figures for the shift in melting temperature (ΔTm) at 10 µM at GAKA, at PRPF4BA and at TRIB2A were -0.3 °C, 0.7 °C and 2.5 °C, respectively.

Take `Cc1ccc(Nc2nsnc(Nc3ccc(C(N)=O)cc3)c2=O)cc1O` [Compound 2, 4-({5-[(3-Hydroxy-4-methylphenyl)amino]-4-oxo-4H-1,2,6-thiadiazin-3-yl}amino)benzamide]: the ΔTm at 10 µM worked out at 1.4 °C at GAKA and 0.1 °C on PRPF4BA.

Turning to `Cc1ccc(Nc2nsnc(Nc3ccc4c(c3)CS(=O)(=O)C4)c2=O)cc1O` [Compound 3, 3-[(2,2-Dioxido-1,3-dihydrobenzo[c]thiophen-5-yl)amino]-5-[(3-hydroxy-4-methylphenyl)amino]-4H-1,2,6-thiadiazin-4-one], the ΔTm at 10 µM at GAKA is 0 °C; at PRPF4BA it was 0.6 °C; at TRIB2A, 4.9 °C.

For `CNC(=O)c1ccccc1Nc1nsnc(Nc2cccc(CS(C)(=O)=O)c2)c1=O` [Compound 4, N-Methyl-2-([5-({3-[(methylsulfonyl)methyl]phenyl}amino)-4-oxo-4H-1,2,6-thiadiazin-3-yl]-amino}-benzamide], the ΔTm at 10 µM at GAKA is -0.4 °C; on PRPF4BA it was 0.1 °C; at TRIB2A it was about 1 °C. At TRIB2A (10 µM), the ΔTm was 1,0 °C.

Take `CNC(=O)c1ccccc1Nc1nsnc(Nc2ccc(N3CCOCC3)cc2)c1=O` [Compound 5, N-Methyl-2-({5-[(4-morpholinophenyl)amino]-4-oxo-4H-1,2,6-thiadiazin-3-yl}amino)benzamide]: the ΔTm at 10 µM on GAKA is -0.4 °C; on PRPF4BA it was 0.1 °C; on TRIB2A it was about 1 °C.
